# Laboratory results reported in patent publication US12071408B2, “Multi-targeted tyrosine kinase inhibitors effective in antitumor uses” (Shanghai AB PharmaTech Ltd., priority 2021, dated 2024).
# Where two headings read alike, the source gives them in different places.
# Assays:
# [1] = tested on: thyroid cancer cell line (TT); assay: Tumor cell proliferation inhibition (CTG, 72 h); format: cell-based; conditions: TT cells, class, read-out: TT range of activity (IC50)
# VEGFR-2 (KDR) = VEGFR-2 (KDR) (Homo sapiens (Human), UniProt P35968); assay: Kinase inhibition, Mobility-Shift Assay; format: biochemical; conditions: class; read-out: KDR activity effect range (IC50)
# [2] = tested on: bladder cancer cell line (RT112/84); assay: Tumor cell proliferation inhibition (CTG, 72 h); format: cell-based; conditions: RT112/84 cells, class, read-out: RT112/84 range of activity (IC50)
# FGFR2 = FGFR2 (Homo sapiens (Human), UniProt P21802); assay: Kinase inhibition, Mobility-Shift Assay; format: biochemical; conditions: class; read-out: FGFR2 range of activity effects (IC50)
# EGFR = EGFR (Homo sapiens (Human), UniProt P00533); assay: Kinase inhibition, Mobility-Shift Assay; format: biochemical; conditions: class; read-out: EGFR range of activity (IC50)
# [3] = tested on: cervical cancer cell line (Hela); assay: Tumor cell proliferation inhibition (CTG, 72 h); format: cell-based; conditions: Hela cells, class, read-out: Hela activity effect range (IC50)
# C-MET = C-MET (Homo sapiens (Human), UniProt P08581); assay: Kinase inhibition, Mobility-Shift Assay; format: biochemical; conditions: class; read-out: C-MET range of activity (IC50)
# FGFR4 = FGFR4 (Homo sapiens (Human), UniProt P22455); assay: Kinase inhibition, Mobility-Shift Assay; format: biochemical; conditions: class; read-out: FGFR4 range of activity effects (IC50)
# [4] = tested on: leukemia cell line (K562); assay: Tumor cell proliferation inhibition (CTG, 72 h); format: cell-based; conditions: K562 cells, class, read-out: K562 activity effect range (IC50)
# [5] = tested on: hepatocellular carcinoma cell line (Hep3B 2.1-7); assay: Tumor cell proliferation inhibition (CTG, 72 h); format: cell-based; conditions: Hep3B 2.1-7 cells, class, read-out: Hep3B 2.1-7 range of activity (IC50)
# FGFR4, sequence (P22455 22-802): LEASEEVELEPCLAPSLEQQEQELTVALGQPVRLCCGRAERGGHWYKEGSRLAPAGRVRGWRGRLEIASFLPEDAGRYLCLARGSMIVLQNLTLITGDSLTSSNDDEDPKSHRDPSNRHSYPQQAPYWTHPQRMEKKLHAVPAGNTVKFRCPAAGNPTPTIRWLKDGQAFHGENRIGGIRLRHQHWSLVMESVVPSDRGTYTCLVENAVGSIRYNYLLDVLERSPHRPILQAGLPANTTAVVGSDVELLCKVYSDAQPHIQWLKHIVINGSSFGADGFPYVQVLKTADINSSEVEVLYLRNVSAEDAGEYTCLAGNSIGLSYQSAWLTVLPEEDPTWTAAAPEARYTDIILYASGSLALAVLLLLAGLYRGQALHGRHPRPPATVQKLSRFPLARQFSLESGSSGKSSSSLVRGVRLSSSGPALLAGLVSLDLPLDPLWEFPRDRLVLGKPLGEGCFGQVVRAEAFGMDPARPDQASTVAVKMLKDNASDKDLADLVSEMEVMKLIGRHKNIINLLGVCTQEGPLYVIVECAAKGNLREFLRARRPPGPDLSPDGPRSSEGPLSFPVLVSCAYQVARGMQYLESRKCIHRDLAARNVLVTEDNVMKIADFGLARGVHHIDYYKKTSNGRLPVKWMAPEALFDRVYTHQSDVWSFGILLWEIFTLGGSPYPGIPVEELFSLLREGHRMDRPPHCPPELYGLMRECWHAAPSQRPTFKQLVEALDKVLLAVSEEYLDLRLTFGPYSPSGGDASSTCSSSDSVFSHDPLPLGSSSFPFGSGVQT
# C-MET, sequence (P08581 25-1390): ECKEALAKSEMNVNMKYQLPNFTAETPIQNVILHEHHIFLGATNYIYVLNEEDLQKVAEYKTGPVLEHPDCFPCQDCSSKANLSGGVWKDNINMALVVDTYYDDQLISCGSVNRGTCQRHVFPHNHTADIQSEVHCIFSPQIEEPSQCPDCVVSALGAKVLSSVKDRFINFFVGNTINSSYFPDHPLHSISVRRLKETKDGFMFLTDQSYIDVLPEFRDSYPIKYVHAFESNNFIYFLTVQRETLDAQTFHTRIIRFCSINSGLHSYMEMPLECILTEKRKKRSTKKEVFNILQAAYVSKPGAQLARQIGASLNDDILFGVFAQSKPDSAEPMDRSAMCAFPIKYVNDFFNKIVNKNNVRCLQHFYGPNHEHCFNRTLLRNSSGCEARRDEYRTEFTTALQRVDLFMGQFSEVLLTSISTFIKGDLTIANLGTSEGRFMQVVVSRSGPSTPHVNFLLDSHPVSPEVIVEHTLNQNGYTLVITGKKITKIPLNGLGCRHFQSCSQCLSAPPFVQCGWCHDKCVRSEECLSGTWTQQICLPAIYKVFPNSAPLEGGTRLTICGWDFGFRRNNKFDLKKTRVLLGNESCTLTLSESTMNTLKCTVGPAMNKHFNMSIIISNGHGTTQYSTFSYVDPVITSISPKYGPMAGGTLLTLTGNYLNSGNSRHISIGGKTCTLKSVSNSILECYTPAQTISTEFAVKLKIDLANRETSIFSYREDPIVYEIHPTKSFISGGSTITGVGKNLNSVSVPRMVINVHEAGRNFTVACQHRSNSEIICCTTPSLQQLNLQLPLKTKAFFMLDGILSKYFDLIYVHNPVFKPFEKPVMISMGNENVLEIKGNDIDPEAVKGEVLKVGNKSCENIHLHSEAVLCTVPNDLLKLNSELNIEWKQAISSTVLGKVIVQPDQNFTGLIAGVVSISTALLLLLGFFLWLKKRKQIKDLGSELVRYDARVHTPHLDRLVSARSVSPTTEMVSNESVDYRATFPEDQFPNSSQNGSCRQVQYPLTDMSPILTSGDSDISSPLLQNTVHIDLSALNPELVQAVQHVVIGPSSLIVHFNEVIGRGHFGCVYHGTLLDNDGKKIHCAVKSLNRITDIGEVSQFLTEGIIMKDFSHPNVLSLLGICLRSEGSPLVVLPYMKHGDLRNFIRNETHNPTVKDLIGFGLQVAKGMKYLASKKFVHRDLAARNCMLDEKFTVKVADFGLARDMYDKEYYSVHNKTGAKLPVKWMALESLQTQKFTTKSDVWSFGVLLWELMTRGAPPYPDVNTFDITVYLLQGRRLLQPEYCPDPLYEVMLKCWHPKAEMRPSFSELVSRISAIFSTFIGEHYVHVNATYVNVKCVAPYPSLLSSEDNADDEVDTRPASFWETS
# VEGFR-2 (KDR), sequence (P35968 20-1356): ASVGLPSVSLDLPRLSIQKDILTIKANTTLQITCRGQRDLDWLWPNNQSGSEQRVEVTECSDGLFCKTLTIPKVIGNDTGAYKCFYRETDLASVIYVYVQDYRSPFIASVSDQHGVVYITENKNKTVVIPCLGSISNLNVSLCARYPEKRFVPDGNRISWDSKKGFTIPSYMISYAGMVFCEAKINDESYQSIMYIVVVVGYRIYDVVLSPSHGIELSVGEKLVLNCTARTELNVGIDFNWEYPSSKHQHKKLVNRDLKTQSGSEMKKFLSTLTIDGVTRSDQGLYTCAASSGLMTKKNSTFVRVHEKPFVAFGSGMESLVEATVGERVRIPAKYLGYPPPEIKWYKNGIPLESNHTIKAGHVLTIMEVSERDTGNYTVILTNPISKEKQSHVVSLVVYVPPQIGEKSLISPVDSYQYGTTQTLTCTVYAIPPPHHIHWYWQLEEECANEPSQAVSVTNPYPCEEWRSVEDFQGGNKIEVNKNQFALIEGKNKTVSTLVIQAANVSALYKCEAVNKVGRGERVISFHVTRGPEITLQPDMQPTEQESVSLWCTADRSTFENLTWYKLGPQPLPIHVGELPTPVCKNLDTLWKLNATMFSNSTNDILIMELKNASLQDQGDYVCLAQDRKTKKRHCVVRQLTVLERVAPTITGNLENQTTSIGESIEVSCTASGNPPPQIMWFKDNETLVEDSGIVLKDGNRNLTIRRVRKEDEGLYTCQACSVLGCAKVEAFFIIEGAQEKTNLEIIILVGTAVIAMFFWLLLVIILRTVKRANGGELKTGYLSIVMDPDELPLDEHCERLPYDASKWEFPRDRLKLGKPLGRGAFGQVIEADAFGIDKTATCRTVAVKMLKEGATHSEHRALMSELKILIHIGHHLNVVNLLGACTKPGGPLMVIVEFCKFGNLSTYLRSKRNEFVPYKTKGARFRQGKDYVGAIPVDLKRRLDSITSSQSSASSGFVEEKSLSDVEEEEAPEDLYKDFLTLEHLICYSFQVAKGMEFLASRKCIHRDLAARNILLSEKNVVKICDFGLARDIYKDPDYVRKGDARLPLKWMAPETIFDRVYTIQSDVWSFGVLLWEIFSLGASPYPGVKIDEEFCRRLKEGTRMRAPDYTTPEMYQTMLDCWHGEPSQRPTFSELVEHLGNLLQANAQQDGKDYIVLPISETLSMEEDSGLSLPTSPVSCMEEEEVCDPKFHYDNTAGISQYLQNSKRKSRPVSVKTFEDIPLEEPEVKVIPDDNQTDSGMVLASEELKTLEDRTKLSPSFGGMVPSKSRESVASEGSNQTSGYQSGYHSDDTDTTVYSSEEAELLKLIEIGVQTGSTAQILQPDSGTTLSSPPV
# EGFR, sequence (P00533 25-1210): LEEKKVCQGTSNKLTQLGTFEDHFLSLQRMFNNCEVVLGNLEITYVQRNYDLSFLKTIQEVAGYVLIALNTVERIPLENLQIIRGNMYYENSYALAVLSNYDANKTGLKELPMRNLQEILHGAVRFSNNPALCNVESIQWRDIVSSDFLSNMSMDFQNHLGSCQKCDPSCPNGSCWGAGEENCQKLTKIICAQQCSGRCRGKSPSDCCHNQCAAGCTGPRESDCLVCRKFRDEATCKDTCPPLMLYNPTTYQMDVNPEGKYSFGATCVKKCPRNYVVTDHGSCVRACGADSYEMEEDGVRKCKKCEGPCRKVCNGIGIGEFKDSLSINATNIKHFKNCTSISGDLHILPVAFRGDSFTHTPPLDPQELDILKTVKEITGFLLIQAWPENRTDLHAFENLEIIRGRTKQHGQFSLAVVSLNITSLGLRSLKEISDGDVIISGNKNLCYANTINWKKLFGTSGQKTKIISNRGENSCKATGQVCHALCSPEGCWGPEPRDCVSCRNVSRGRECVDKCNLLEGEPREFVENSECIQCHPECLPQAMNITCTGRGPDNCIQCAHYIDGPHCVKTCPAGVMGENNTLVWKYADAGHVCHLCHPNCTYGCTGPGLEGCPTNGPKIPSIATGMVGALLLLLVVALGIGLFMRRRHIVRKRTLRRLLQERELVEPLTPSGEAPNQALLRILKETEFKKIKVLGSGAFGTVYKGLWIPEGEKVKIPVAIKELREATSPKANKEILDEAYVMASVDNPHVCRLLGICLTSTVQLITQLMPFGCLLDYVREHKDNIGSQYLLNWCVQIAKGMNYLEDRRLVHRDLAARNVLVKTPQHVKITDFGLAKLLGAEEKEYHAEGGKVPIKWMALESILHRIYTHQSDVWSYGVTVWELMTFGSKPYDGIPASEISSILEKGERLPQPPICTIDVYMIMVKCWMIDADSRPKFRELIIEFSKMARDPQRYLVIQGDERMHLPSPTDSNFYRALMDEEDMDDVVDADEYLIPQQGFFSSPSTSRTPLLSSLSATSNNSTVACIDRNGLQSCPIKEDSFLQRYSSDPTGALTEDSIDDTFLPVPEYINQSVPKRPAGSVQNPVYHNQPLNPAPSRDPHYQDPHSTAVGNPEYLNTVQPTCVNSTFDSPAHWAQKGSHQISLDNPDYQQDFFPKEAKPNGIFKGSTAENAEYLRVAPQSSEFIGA
IC50 [1],IC50 (VEGFR-2 (KDR)),IC50 [2],IC50 (FGFR2),IC50 (EGFR),IC50 [3],IC50 (C-MET),IC50 (FGFR4),IC50 [4],IC50 [5],IC50 ([1]; Homo sapiens),IC50 ([2]; Homo sapiens),IC50 ([3]; Homo sapiens),IC50 ([4]; Homo sapiens),IC50 ([5]; Homo sapiens),SMILES
–,> 0.01 µM,–,> 0.1 µM,> 0.1 µM,–,> 0.1 µM,> 0.1 µM,–,–,> 10 µM,> 1 µM,> 10 µM,> 10 µM,> 5 µM,COc1cc2nccc(Oc3c(Cl)cc(NC(=O)NC4CC4)c(Cl)c3F)c2cc1C(N)=O [III-19]
–,> 0.01 µM,–,> 0.1 µM,> 0.1 µM,–,> 0.1 µM,> 0.1 µM,–,–,> 10 µM,> 1 µM,> 10 µM,> 10 µM,> 5 µM,COc1cc2nccc(Oc3c(F)c(F)c(NC(=O)NC4CC4)c(OC)c3F)c2cc1C(N)=O [III-51]
–,> 0.01 µM,–,> 0.1 µM,> 0.1 µM,–,> 0.1 µM,> 0.1 µM,–,–,> 10 µM,> 1 µM,> 10 µM,> 10 µM,> 5 µM,COc1cc2nccc(Oc3c(F)cc(NC(=O)N(C)C(C)C)c(Cl)c3F)c2cc1C(N)=O [III-02]
–,> 0.01 µM,–,> 0.1 µM,> 0.1 µM,–,> 0.1 µM,> 0.1 µM,–,–,> 10 µM,> 1 µM,> 10 µM,> 10 µM,> 5 µM,COc1cc2nccc(Oc3c(F)cc(NC(=O)NC[C@H](O)CO)c(Cl)c3F)c2cc1C(N)=O [III-14]
–,> 0.01 µM,–,> 0.1 µM,> 0.1 µM,–,> 0.1 µM,> 0.1 µM,–,–,> 10 µM,> 1 µM,> 10 µM,> 10 µM,> 5 µM,COc1cc2nccc(Oc3c(F)cc(NC(=O)NC4CC4)c(Br)c3F)c2cc1C(N)=O [III-17]
–,> 0.01 µM,–,> 0.1 µM,> 0.1 µM,–,> 0.1 µM,> 0.1 µM,–,–,> 10 µM,> 1 µM,> 10 µM,> 10 µM,> 5 µM,COc1cc2nccc(Oc3c(F)cc(NC(=O)NC4COC4)c(Cl)c3F)c2cc1C(N)=O [III-27]
–,> 0.01 µM,–,> 0.1 µM,> 0.1 µM,–,> 0.1 µM,> 0.1 µM,–,–,> 10 µM,> 1 µM,> 10 µM,> 10 µM,> 5 µM,COc1cc2nccc(Oc3c(Br)cc(NC(=O)NC4CC4)c(Cl)c3F)c2cc1C(N)=O [III-18]
–,> 0.01 µM,–,> 0.1 µM,> 0.1 µM,–,> 0.1 µM,> 0.1 µM,–,–,> 10 µM,> 1 µM,> 10 µM,> 10 µM,> 5 µM,COc1cc2nccc(Oc3c(F)cc(NC(=O)N4CCN(C)CC4)c(Cl)c3F)c2cc1C(N)=O [III-33]
–,0.002 to 0.01 µM,–,0.03 to 0.1 µM,> 0.1 µM,–,0.06 to 0.1 µM,> 0.1 µM,–,–,> 10 µM,0.2 to 1 µM,> 10 µM,5 to 10 µM,2.5 to 5 µM,COc1cc2nccc(Oc3c(F)cc(NC(=O)NC4CC4)c(F)c3F)c2cc1C(N)=O [III-16]
–,> 0.01 µM,–,> 0.1 µM,> 0.1 µM,–,> 0.1 µM,> 0.1 µM,–,–,> 10 µM,> 1 µM,> 10 µM,> 10 µM,> 5 µM,COc1cc2nccc(Oc3c(F)cc(NC(=O)NC4(C)CC4)c(Cl)c3F)c2cc1C(N)=O [III-22]
–,> 0.01 µM,–,> 0.1 µM,> 0.1 µM,–,> 0.1 µM,> 0.1 µM,–,–,> 10 µM,> 1 µM,> 10 µM,> 10 µM,> 5 µM,COc1cc2nccc(Oc3c(F)cc(NC(=O)NC4CC4)c(Cl)c3OCC(F)(F)F)c2cc1C(N)=O [III-47]

# The next lines start with the molecule.
SMILES,IC50 [1],IC50 (VEGFR-2 (KDR)),IC50 [2],IC50 (FGFR2),IC50 (EGFR),IC50 [3],IC50 (C-MET),IC50 (FGFR4),IC50 [4],IC50 [5],IC50 ([1]; Homo sapiens),IC50 ([2]; Homo sapiens),IC50 ([3]; Homo sapiens),IC50 ([4]; Homo sapiens),IC50 ([5]; Homo sapiens)
COc1cc2nccc(Oc3c(F)cc(NC(=O)NC4CC(O)C4)c(Cl)c3F)c2cc1C(N)=O (stereo not shown) [III-30],> 10 µM,> 0.01 µM,> 1 µM,> 0.1 µM,> 0.1 µM,> 10 µM,> 0.1 µM,> 0.1 µM,> 10 µM,> 5 µM,–,–,–,–,–
COc1cc2nccc(Oc3c(F)cc(NC(=O)NC4CC4)c(Cl)c3OC(C)C)c2cc1C(N)=O [III-42],–,> 0.01 µM,–,> 0.1 µM,> 0.1 µM,–,> 0.1 µM,> 0.1 µM,–,–,> 10 µM,> 1 µM,> 10 µM,> 10 µM,> 5 µM
COc1cc2nccc(Oc3c(F)cc(NC(=O)N4CC[C@@H](O)C4)c(Cl)c3F)c2cc1C(N)=O [III-32],–,> 0.01 µM,–,> 0.1 µM,> 0.1 µM,–,> 0.1 µM,> 0.1 µM,–,–,> 10 µM,> 1 µM,> 10 µM,> 10 µM,> 5 µM
COc1cc2nccc(Oc3c(F)cc(NC(=O)NC4CC4(F)F)c(F)c3F)c2cc1C(N)=O (stereo not shown) [III-23],–,> 0.01 µM,–,> 0.1 µM,> 0.1 µM,–,> 0.1 µM,> 0.1 µM,–,–,> 10 µM,> 1 µM,> 10 µM,> 10 µM,> 5 µM
COc1cc2nccc(Oc3c(F)cc(NC(=O)NC(C)C)c(Cl)c3F)c2cc1C(N)=O [III-34],–,> 0.01 µM,–,> 0.1 µM,> 0.1 µM,–,> 0.1 µM,> 0.1 µM,–,–,> 10 µM,> 1 µM,> 10 µM,> 10 µM,> 5 µM
COc1cc2nccc(Oc3c(F)cc(NC(=O)NC4CC4)c(Cl)c3OCC(F)F)c2cc1C(N)=O [III-44],–,> 0.01 µM,–,> 0.1 µM,> 0.1 µM,–,> 0.1 µM,> 0.1 µM,–,–,> 10 µM,> 1 µM,> 10 µM,> 10 µM,> 5 µM
COc1cc2nccc(Oc3c(F)cc(NC(=O)NC4CCOCC4)c(Cl)c3F)c2cc1C(N)=O [III-28],–,> 0.01 µM,–,> 0.1 µM,> 0.1 µM,–,> 0.1 µM,> 0.1 µM,–,–,> 10 µM,> 1 µM,> 10 µM,> 10 µM,> 5 µM
COc1cc2nccc(Oc3c(F)cc(NC(=O)NC(C)(C)CO)c(Cl)c3F)c2cc1C(N)=O [III-11],–,> 0.01 µM,–,> 0.1 µM,> 0.1 µM,–,> 0.1 µM,> 0.1 µM,–,–,> 10 µM,> 1 µM,> 10 µM,> 10 µM,> 5 µM
COc1cc2nccc(Oc3c(F)cc(NC(=O)NCCO)c(Cl)c3F)c2cc1C(N)=O [III-06],–,> 0.01 µM,–,> 0.1 µM,> 0.1 µM,–,> 0.1 µM,> 0.1 µM,–,–,> 10 µM,> 1 µM,> 10 µM,> 10 µM,> 5 µM
COc1cc2nccc(Oc3c(F)cc(NC(=O)NC4CC(O)C4)c(Cl)c3F)c2cc1C(N)=O (stereo not shown) [III-29],–,> 0.01 µM,–,> 0.1 µM,> 0.1 µM,–,> 0.1 µM,> 0.1 µM,–,–,> 10 µM,> 1 µM,> 10 µM,> 10 µM,> 5 µM
COc1cc2nccc(Oc3c(F)cc(NC(=O)NC4CC4)c(Cl)c3N(C)C)c2cc1C(N)=O [III-49],–,> 0.01 µM,–,> 0.1 µM,> 0.1 µM,–,> 0.1 µM,> 0.1 µM,–,–,> 10 µM,> 1 µM,> 10 µM,> 10 µM,> 5 µM
COc1cc2nccc(Oc3c(F)cc(NC(=O)NCC(F)F)c(Cl)c3F)c2cc1C(N)=O [III-05],–,> 0.01 µM,–,> 0.1 µM,> 0.1 µM,–,> 0.1 µM,> 0.1 µM,–,–,> 10 µM,> 1 µM,> 10 µM,> 10 µM,> 5 µM
COc1cc2nccc(Oc3c(Cl)cc(NC(=O)NC4CC4)c(F)c3F)c2cc1C(N)=O [III-35],–,> 0.01 µM,–,> 0.1 µM,> 0.1 µM,–,> 0.1 µM,> 0.1 µM,–,–,> 10 µM,> 1 µM,> 10 µM,> 10 µM,> 5 µM
COc1cc2nccc(Oc3c(Cl)cc(NC(=O)NC4CC4)c(Br)c3F)c2cc1C(N)=O [III-20],–,> 0.01 µM,–,> 0.1 µM,> 0.1 µM,–,> 0.1 µM,> 0.1 µM,–,–,> 10 µM,> 1 µM,> 10 µM,> 10 µM,> 5 µM
